In general, IC50 refers to the concentration that inhibits the measured activity by half.

Sequence of GST-tagged truncated human mutant G2019S LRRK2 (Q5S007 970-2527 G2019S): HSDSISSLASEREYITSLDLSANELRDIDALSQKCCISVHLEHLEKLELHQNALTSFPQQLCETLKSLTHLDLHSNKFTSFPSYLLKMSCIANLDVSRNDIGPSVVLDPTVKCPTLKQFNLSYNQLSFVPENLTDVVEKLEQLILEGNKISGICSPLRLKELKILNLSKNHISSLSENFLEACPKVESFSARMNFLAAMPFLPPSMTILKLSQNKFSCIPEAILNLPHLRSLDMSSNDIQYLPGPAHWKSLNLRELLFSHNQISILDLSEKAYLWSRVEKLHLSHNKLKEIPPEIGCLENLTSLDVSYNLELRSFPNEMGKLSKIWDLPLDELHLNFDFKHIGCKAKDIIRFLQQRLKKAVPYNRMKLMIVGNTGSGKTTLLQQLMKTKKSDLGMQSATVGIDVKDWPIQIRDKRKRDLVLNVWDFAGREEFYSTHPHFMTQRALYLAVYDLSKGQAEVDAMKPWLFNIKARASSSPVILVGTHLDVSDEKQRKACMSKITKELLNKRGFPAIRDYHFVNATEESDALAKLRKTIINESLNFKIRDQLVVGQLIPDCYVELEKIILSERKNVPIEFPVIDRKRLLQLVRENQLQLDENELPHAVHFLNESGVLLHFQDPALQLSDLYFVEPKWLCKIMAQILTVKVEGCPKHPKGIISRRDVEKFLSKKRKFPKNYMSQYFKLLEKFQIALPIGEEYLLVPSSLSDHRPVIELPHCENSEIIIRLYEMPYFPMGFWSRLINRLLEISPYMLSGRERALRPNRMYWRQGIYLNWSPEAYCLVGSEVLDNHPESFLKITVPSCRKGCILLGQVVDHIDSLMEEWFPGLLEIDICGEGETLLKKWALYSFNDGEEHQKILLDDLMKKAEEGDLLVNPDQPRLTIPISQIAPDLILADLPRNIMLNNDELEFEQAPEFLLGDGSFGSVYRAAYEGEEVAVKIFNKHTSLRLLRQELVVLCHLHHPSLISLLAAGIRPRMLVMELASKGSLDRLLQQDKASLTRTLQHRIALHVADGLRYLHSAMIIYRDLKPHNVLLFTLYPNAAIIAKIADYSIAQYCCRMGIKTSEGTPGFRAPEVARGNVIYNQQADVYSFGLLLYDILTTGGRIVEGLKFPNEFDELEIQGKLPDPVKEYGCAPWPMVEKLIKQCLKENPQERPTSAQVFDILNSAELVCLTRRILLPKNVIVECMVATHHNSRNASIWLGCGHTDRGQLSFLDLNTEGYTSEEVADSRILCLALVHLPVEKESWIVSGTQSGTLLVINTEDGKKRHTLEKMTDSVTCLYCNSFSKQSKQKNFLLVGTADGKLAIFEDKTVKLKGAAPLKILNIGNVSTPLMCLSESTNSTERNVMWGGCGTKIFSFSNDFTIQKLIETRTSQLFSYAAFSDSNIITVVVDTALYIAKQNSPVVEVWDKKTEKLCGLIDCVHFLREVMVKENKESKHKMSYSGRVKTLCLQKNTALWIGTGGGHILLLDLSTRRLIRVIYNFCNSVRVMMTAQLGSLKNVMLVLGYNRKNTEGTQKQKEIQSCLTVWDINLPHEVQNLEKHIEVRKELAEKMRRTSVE

In the assay the target is GST-tagged truncated human mutant G2019S LRRK2 (Homo sapiens (Human), UniProt Q5S007, G2019S). The assay is described as follows: LRRK2 Km ATP LanthaScreen Assay. It is filed as biochemical. Particulars: 134 μM ATP (Km ATP); fluorescein-labeled LRRKtide substrate; mean IC50 values. The protocol:
Unless otherwise noted, all LRRK2 IC50 data presented in tables refers to the LRRK2 Km ATP LanthaScreen™ Assay that is described in the Biological Assay section.
Biological Assay: LRRK2 Km ATP LanthaScreen™ Assay
The LRRK2 kinase activity reported herein as IC50 values was determined with LanthaScreen™ technology from Life Technologies Corporation (Carlsbad, Calif.) using GST-tagged truncated human mutant G2019S LRRK2 in the presence of the fluorescein-labeled peptide substrate LRRKtide, also from Life Technologies. The data presented for the Km ATP LanthaScreen™ Assay represents mean IC50 values based on several test results and may have reasonable deviations depending on the specific conditions and reagents used. Assays were performed in the presence of 134 μM ATP (Km ATP). Upon completion, the assay was stopped and phosphorylated substrate detected with a terbium (Tb)-labeled anti-pERM antibody (cat. no. PV4898). The compound dose response was prepared by diluting a 10 mM stock of compound to a maximum concentration of 9.99 μM in 100% dimethylsulfoxide followed by custom fold serial dilution in dimethylsulfoxide nine times. Twenty nanoliters of each dilution was spotted via a Labcyte Echo onto a 384-well black-sided plate (Corning 3575) followed by 15 μl of a 1.25 nM enzyme solution in 1× assay buffer (50 mM Tris pH 8.5, 10 mM MgCl2, 0.01% Brij-35, 1 mM EGTA, 2 mM dithiothreitol, 0.05 mM sodium orthovanadate) Following a 15-minute incubation at room temperature, the kinase reaction was started with the addition of 5 μl of 400 nM fluorescein-labeled LRRKtide peptide substrate and 134 μM ATP solution in 1× assay buffer. The reaction was allowed to progress at ambient temperature for 90 minutes. The reaction was then stopped by the addition of 20 μl of TR-FRET Dilution Buffer (Life Technologies, Carlsbad, Calif.) containing 2 nM Tb-labeled anti-phospho LRRKtide antibody and 10 mM EDTA (Life Technologies, Carlsbad, Calif.). After an incubation of 1 hour at room temperature, the plate was read on an EnVision multimode plate reader (Perkin Elmer, Waltham, Mass.) with an excitation wavelength of 337 nm (Laser) and a reading emission at both 520 and 495 nm. Compound IC50s were interpolated from nonlinear regression best fits of the log of the final compound concentration, plotted as a function of the 520/495-nm emission ratio using Activity base. Abase uses a 4 parameter (4P) logistic fit based on the Levenberg-Marquardt algorithm.
(TR-FRET usually uses a lanthanide donor and a delayed reading to cut background.)
The compound `CN1CCN(c2cc(-n3ncc4ccc(C5(C#N)CC6(CC6)C5)cc43)ncn2)CC1CO` (single isomer, unassigned) [Example 15, 5-(1-(6-(3-(hydroxymethyl)-4-methylpiperazin-1-yl)pyrimidin-4-yl)-1H-indazol-6-yl)spiro[2.3]hexane-5-carbonitrile] had a concentration for half-maximal inhibition (IC50) of 3.8 nM.

Turning to `CN1CCN(c2cc(-n3ncc4ccc(C5(C#N)CC6(CC6)C5)cc43)ncn2)CC1CO` (single isomer, unassigned) [Example 16, 5-(1-(6-(3-(hydroxymethyl)-4-methylpiperazin-1-yl)pyrimidin-4-yl)-1H-indazol-6-yl)spiro[2.3]hexane-5-carbonitrile], the 50% inhibitory concentration (IC50) is 1.2 nM.

Consider `CC(C)(O)C1CN(c2cc(-n3ncc4ccc(C5(C#N)CC6(CC6)C5)cc43)ncn2)CC1F` (single isomer, unassigned) [Example 22, 5-(1-(6-(3-fluoro-4-(2-hydroxypropan-2-yl)pyrrolidin-1-yl)pyrimidin-4-yl)-1H-indazol-6-yl)spiro[2.3]hexane-5-carbonitrile], for which the IC50 turned out to be 3.7 nM.

On to `CC(C)(O)C1CN(c2cc(-n3ncc4ccc(C5(C#N)CC6(CC6)C5)cc43)ncn2)CC1F` (single isomer, unassigned) [Example 23, 5-(1-(6-(3-fluoro-4-(2-hydroxypropan-2-yl)pyrrolidin-1-yl)pyrimidin-4-yl)-1H-indazol-6-yl)spiro[2.3]hexane-5-carbonitrile], for which the midpoint of inhibition, the IC50, lay at 4.6 nM.

Turning to `C[C@H]1CN(c2cc(-n3ncc4ccc(C5(C#N)CC6(CC6)C5)cc43)ncn2)CCN1C1CCOC1` (single isomer, unassigned) [Example 34], the midpoint of inhibition, the IC50, lay at 0.9 nM.

In turn, `C[C@H]1CN(c2cc(-n3ncc4ccc(C5(C#N)CC6(CC6)C5)cc43)ncn2)CCN1C1CCOC1` (single isomer, unassigned) [Example 35] returned a half-inhibitory concentration (IC50) of 3.5 nM.

With `CC1C(C(C)(C)O)CCN1c1cc(-n2ncc3ccc(C4(C#N)CC5(CC5)C4)cc32)ncn1` (single isomer, unassigned) [Example 36, 5-(1-(6-(3-(2-hydroxypropan-2-yl)-2-methylpyrrolidin-1-yl)pyrimidin-4-yl)-1H-indazol-6-yl)spiro[2.3]hexane-5-carbonitrile], inhibition was half-maximal at 3.2 nM (IC50).

`CC1C(C(C)(C)O)CCN1c1cc(-n2ncc3ccc(C4(C#N)CC5(CC5)C4)cc32)ncn1` (single isomer, unassigned) [Example 37, 5-(1-(6-(3-(2-hydroxypropan-2-yl)-2-methylpyrrolidin-1-yl)pyrimidin-4-yl)-1H-indazol-6-yl)spiro[2.3]hexane-5-carbonitrile] returned a concentration for half-maximal inhibition (IC50) of 138 nM.

In the case of `CC1C(C(C)(C)O)CCN1c1cc(-n2ncc3ccc(C4(C#N)CC5(CC5)C4)cc32)ncn1` (single isomer, unassigned) [Example 38, 5-(1-(6-(3-(2-hydroxypropan-2-yl)-2-methylpyrrolidin-1-yl)pyrimidin-4-yl)-1H-indazol-6-yl)spiro[2.3]hexane-5-carbonitrile], the 50% inhibitory concentration (IC50) worked out at 59 nM.

Take `CC1C(C(C)(C)O)CCN1c1cc(-n2ncc3ccc(C4(C#N)CC5(CC5)C4)cc32)ncn1` (single isomer, unassigned) [Example 39, 5-(1-(6-(3-(2-hydroxypropan-2-yl)-2-methylpyrrolidin-1-yl)pyrimidin-4-yl)-1H-indazol-6-yl)spiro[2.3]hexane-5-carbonitrile]: the IC50 was found to be 1.2 nM.

As to `CN1CCOC2CN(c3cc(-n4ncc5ccc(C6(C#N)CC7(CC7)C6)cc54)ncn3)CC21` (single isomer, unassigned) [Example 40, 5-(1-(6-(4-methylhexahydropyrrolo[3,4-b][1,4]oxazin-6(2H)-yl)pyrimidin-4-yl)-1H-indazol-6-yl)spiro[2.3]hexane-5-carbonitrile], the IC50 came out at 0.9 nM.

The compound `CN1CCOC2CN(c3cc(-n4ncc5ccc(C6(C#N)CC7(CC7)C6)cc54)ncn3)CC21` (single isomer, unassigned) [Example 41] showed a half-inhibitory concentration (IC50) of 1.2 nM.

Consider `CC1CC12CC(C#N)(c1ccc3cnn(-c4cc(N5CCN6CCOC[C@@H]6C5)ncn4)c3c1)C2` (single isomer, unassigned) [Example 50], for which the 50% inhibitory concentration (IC50) came out at 4.4 nM.

`CC1CC12CC(C#N)(c1ccc3cnn(-c4cc(N5CCN6CCOC[C@@H]6C5)ncn4)c3c1)C2` (single isomer, unassigned) [Example 51] displayed an IC50 of 9.8 nM.

`CC1CC12CC(C#N)(c1ccc3cnn(-c4cc(N5CCN6CCOC[C@@H]6C5)ncn4)c3c1)C2` (single isomer, unassigned) [Example 52]: the half-inhibitory concentration (IC50) worked out at 2.4 nM.

`CC1C2(CC2)CC1(C#N)c1ccc2cnn(-c3cc(N4CCN5CCOC[C@@H]5C4)ncn3)c2c1` (single isomer, unassigned) [Example 53] gave a half-inhibitory concentration (IC50) of 7.9 nM.

For `CC1C2(CC2)CC1(C#N)c1ccc2cnn(-c3cc(N4CCN5CCOC[C@@H]5C4)ncn3)c2c1` (single isomer, unassigned) [Example 54], it took 1.7 nM to reach half-maximal inhibition (IC50).

The compound `CC1C2(CC2)CC1(C#N)c1ccc2cnn(-c3cc(N4CCN5CCOC[C@@H]5C4)ncn3)c2c1` (single isomer, unassigned) [Example 55] yielded an IC50 of 34 nM.

With `CC1C2(CC2)CC1(C#N)c1ccc2cnn(-c3cc(N4CCN5CCOC[C@@H]5C4)ncn3)c2c1` (single isomer, unassigned) [Example 56], it took 3 nM to reach half-maximal inhibition (IC50).

For the compound `N#CC1(c2ccc3cnn(-c4cc(N5CC[C@@H](O)[C@@H](F)C5)ncn4)c3c2)CC2(CC2)C1` [Example 1, 5-(1-(6-((3S,4R)-3-fluoro-4-hydroxypiperidin-1-yl)pyrimidin-4-yl)-1H-indazol-6-yl)spiro[2.3]hexane-5-carbonitrile], half-maximal inhibition (IC50) required 4.4 nM.

Take `Cc1nc(N2CC[C@H](O)[C@@H](F)C2)cc(-n2ncc3ccc(C4(C#N)CC5(CC5)C4)cc32)n1` [Example 2, 5-(1-(6-((3S,4S)-3-fluoro-4-hydroxypiperidin-1-yl)-2-methylpyrimidin-4-yl)-1H-indazol-6-yl)spiro[2.3]hexane-5-carbonitrile]: the IC50 was 5.1 nM.

`Cc1nc(N2CC[C@H](O)[C@H](F)C2)cc(-n2ncc3ccc(C4(C#N)CC5(CC5)C4)cc32)n1` [Example 3, 5-(1-(6-((3R,4S)-3-fluoro-4-hydroxypiperidin-1-yl)-2-methylpyrimidin-4-yl)-1H-indazol-6-yl)spiro[2.3]hexane-5-carbonitrile] showed an IC50 of 18 nM.

`Cc1nc(N2CC[C@@H](O)[C@@H](F)C2)cc(-n2ncc3ccc(C4(C#N)CC5(CC5)C4)cc32)n1` [Example 4, 5-(1-(6-((3S,4R)-3-fluoro-4-hydroxypiperidin-1-yl)-2-methylpyrimidin-4-yl)-1H-indazol-6-yl)spiro[2.3]hexane-5-carbonitrile] came in with an IC50 of 7.4 nM.

In the case of `Cc1nc(N2CC3(C(C)(C)O)CC2C3)cc(-n2ncc3ccc(C4(C#N)CC5(CC5)C4)cc32)n1` [Example 5, 5-(1-(6-(4-(2-hydroxypropan-2-yl)-2-azabicyclo[2.1.1]hexan-2-yl)-2-methylpyrimidin-4-yl)-1H-indazol-6-yl)spiro[2.3]hexane-5-carbonitrile], it took 12.3 nM to reach half-maximal inhibition (IC50).

`N#CC1(c2ccc3cnn(-c4cc(N5CC[C@H](O)[C@@H](F)C5)ncn4)c3c2)CC2(CC2)C1` [Example 6, 5-(1-(6-((3S,4S)-3-fluoro-4-hydroxypiperidin-1-yl)pyrimidin-4-yl)-1H-indazol-6-yl)spiro[2.3]hexane-5-carbonitrile] displayed a 50% inhibitory concentration (IC50) of 6.2 nM.

In the case of `N#CC1(c2ccc3cnn(-c4cc(N5CC6(CO)CC5C6)ncn4)c3c2)CC2(CC2)C1` [Example 7, 5-(1-(6-(4-(hydroxymethyl)-2-azabicyclo[2.1.1]hexan-2-yl)pyrimidin-4-yl)-1H-indazol-6-yl)spiro[2.3]hexane-5-carbonitrile], the concentration for half-maximal inhibition (IC50) was determined as 1.5 nM.

The compound `N#CC1(c2ccc3cnn(-c4cc(N5CC[C@@H](CO)C5)ncn4)c3c2)CC2(CC2)C1` [Example 8, (R)-5-(1-(6-(3-(hydroxy-methyl)pyrrolidin-1-yl)pyrimidin-4-yl)-1H-indazol-6-yl)spiro[2.3]hexane-5-carbonitrile] showed an IC50 of 2.9 nM.

`COCC12CC(C1)N(c1cc(-n3ncc4ccc(C5(C#N)CC6(CC6)C5)cc43)ncn1)C2` [Example 9, 5-(1-(6-(4-(methoxymethyl)-2-azabicyclo[2.1.1]hexan-2-yl)pyrimidin-4-yl)-1H-indazol-6-yl)spiro[2.3]hexane-5-carbonitrile]: the concentration for half-maximal inhibition (IC50) stood at 9.3 nM.
